Results taken from US12552783B2, “Modulators of proteolysis and associated methods of use” (Arvinas Operations, Inc., priority 2018, dated 2026).

Biological target: KRas (Homo sapiens, UniProt P01116, G12C)
Test: KRas degradation in NCI-H2030 cells by Western blot, normalized to GAPDH (data of Table 14)
Type: cell-based
Set-up: host or cells: NCI-H2030
Conditions: for Dmax: NCI-H2030
Method: Cell Lines, Antibodies, and Reagents. NCI-H2030 (CRL-5914) and SW1573 (CRL-2170) cells were purchased from ATCC. Both cell lines are homozygous for the G12C mutation in KRas. NCI-H2030 cells were cultured in RPMI-1640 medium containing 1% penicillin-streptomycin and 10% fetal bovine serum (FBS). SW1573 cells were cultured in DMEM containing 1% penicillin-streptomycin and 10% FBS. The KRas detection antibody (Cat. No. LS-C175665) was purchased from LifeSpan Biosciences and was used at a dilution of 1:2000. GAPDH was detected using an antibody purchased from Cell Signaling Technology (Cat. No. 5174) and was diluted 1:3000. Secondary anti-mouse and anti-rabbit detection antibodies were purchased from Cell Signaling Technology (Cat. Nos. 7076 and 7074, respectively).
Compound Treatment and Western Blotting of the Data of Table 14. Either NCI-H2030 or SW1573 cells were plated in 12-well plates and allowed to adhere overnight at 37° C. in an incubator containing 5% CO2. The following day, the medium was replaced with the appropriate medium lacking FBS to induce starvation. Cells were returned to the incubator for an additional 24 hours following media exchange. […] Cells were treated with VHL-based compounds for 24 hours and all other compounds for 72 hours. Following treatment, cells were lysed in RIPA buffer (Thermo Fisher Cat. No. 89900) containing phosphatase (Thermo Fisher Cat. No. 1861277) and protease (Thermo Fisher Cat. No. 78429) inhibitor cocktails. Lysates were cleared at 13,000 rpm for 15 minutes and supernatants were assayed for total protein concentration using the Pierce BCA assay system (Thermo Fisher Cat. No. 23225). For each sample, 10 μg total protein was resolved on a 12% Bis-Tris gel and then transferred to a nitrocellulose membrane. After blocking in 3% BSA in TBST (Tris-buffered Saline with 0.1% Tween-20) for 1 hour at room temperature, membranes were probed with the primary antibody (LS Bio Cat. No. LS-C175665) overnight at 4° C. After incubation with the secondary antibody, the following day membranes were visualized using the SuperSignal™ West Femto substrate (Thermo Fisher Cat. No. 34095). The KRas signal in each lane was normalized to GAPDH and percent degradation was either estimated as less than 25% by visual inspection (C in Table 13) or quantitated relative to the DMSO control lane using BIO-RAD Image Lab 5.2.1, and all data was plotted using GraphPad PRISM 6.07.
DC50 is the half-maximal degradation concentration—i.e., the concentration at which 50% degradation is observed. DMax is the maximum degradation efficacy is achieved—i.e., the maximal degradation observed) degradation data.

Percent Degradation at Indicated Concentration (μM) (H2030, 3 μM) | Percent Degradation at Indicated Concentration (μM) (H2030, 0.3 μM) | Percent Degradation at Indicated Concentration (μM) (H2030, 1 μM) | Dmax [%] | Percent Degradation at Indicated Concentration (μM) (H2030 cells, 0.3 μM) | Percent Degradation at Indicated Concentration (μM) (H2030 cells, 1 μM) | Percent Degradation at Indicated Concentration (μM) (H2030 cells, 3 μM) | Compound
C (Percent Degradation: C ≤ 35) | – | – | – | – | – | – | C=CC(=O)N1CCN(c2nc(NCCC(=O)N(C)CCOCCOCCOCC(=O)N[C@H](C(=O)N3C[C@H](O)C[C@H]3C(=O)N[C@@H](C)c3ccc(-c4scnc4C)cc3)C(C)(C)C)nc3c(F)c(-c4c(O)cccc4F)c(Cl)cc23)CC1 (atropisomer, axis not shown) [compound 209, (2S,4R)-1-((S)-18-((4-(4-acryloylpiperazin-1-yl)-6-chloro-8-fluoro-7-((S)-2-fluoro-6-hydroxyphenyl)quinazolin-2-yl)amino)-2-(tert-butyl)-15-methyl-4,16-dioxo-6,9,12-trioxa-3,15-diazaoctadecanoyl)-4-hydroxy-N-((S)-1-(4-(4-methylthiazol-5-yl)phenyl)ethyl)pyrrolidine-2-carboxamide]
C (Percent Degradation: C ≤ 35) | C (Percent Degradation: C ≤ 35) | C (Percent Degradation: C ≤ 35) | ≤ 35 | – | – | – | C=CC(=O)N1CCN(c2nc(NCCC(=O)N(C)CCOCCOCCOCC(=O)N[C@H](C(=O)N3C[C@H](O)C[C@H]3C(=O)N[C@@H](C)c3ccc(-c4scnc4C)cc3)C(C)(C)C)nc3c(F)c(-c4c(O)cccc4F)c(Cl)cc23)CC1 (atropisomer, axis not shown) [compound 210, (2S,4R)-1-((S)-18-((4-(4-acryloylpiperazin-1-yl)-6-chloro-8-fluoro-7-((R)-2-fluoro-6-hydroxyphenyl)quinazolin-2-yl)amino)-2-(tert-butyl)-15-methyl-4,16-dioxo-6,9,12-trioxa-3,15-diazaoctadecanoyl)-4-hydroxy-N-((S)-1-(4-(4-methylthiazol-5-yl)phenyl)ethyl)pyrrolidine-2-carboxamide]
C (Percent Degradation: C ≤ 35) | – | – | – | – | – | – | C=CC(=O)N1CCN(c2nc(NCCC(=O)N(C)CCOCCOCCOCCOCC(=O)N[C@H](C(=O)N3C[C@H](O)C[C@H]3C(=O)N[C@@H](C)c3ccc(-c4scnc4C)cc3)C(C)(C)C)nc3c(F)c(-c4c(O)cccc4F)c(Cl)cc23)CC1 (atropisomer, axis not shown) [compound 211, (2S,4R)-1-((S)-21-(((S)-4-(4-acryloylpiperazin-1-yl)-6-chloro-8-fluoro-7-(2-fluoro-6-hydroxyphenyl)quinazolin-2-yl)amino)-2-(tert-butyl)-18-methyl-4,19-dioxo-6,9,12,15-tetraoxa-3,18-diazahenicosanoyl)-4-hydroxy-N-((S)-1-(4-(4-methylthiazol-5-yl)phenyl)ethyl)pyrrolidine-2-carboxamide]
C (Percent Degradation: C ≤ 35) | C (Percent Degradation: C ≤ 35) | C (Percent Degradation: C ≤ 35) | ≤ 35 | – | – | – | C=CC(=O)N1CCN(c2nc(NCCC(=O)N(C)CCOCCOCCOCCOCC(=O)N[C@H](C(=O)N3C[C@H](O)C[C@H]3C(=O)N[C@@H](C)c3ccc(-c4scnc4C)cc3)C(C)(C)C)nc3c(F)c(-c4c(O)cccc4F)c(Cl)cc23)CC1 (atropisomer, axis not shown) [compound 212, (2S,4R)-1-((S)-21-(((R)-4-(4-acryloylpiperazin-1-yl)-6-chloro-8-fluoro-7-(2-fluoro-6-hydroxyphenyl)quinazolin-2-yl)amino)-2-(tert-butyl)-18-methyl-4,19-dioxo-6,9,12,15-tetraoxa-3,18-diazahenicosanoyl)-4-hydroxy-N-((S)-1-(4-(4-methylthiazol-5-yl)phenyl)ethyl)pyrrolidine-2-carboxamide]
C (Percent Degradation: C ≤ 35) | – | – | – | – | – | – | C=CC(=O)N1CCN(c2nc(NCCC(=O)N(C)CCOCCOCCOCCOCCOCC(=O)N[C@H](C(=O)N3C[C@H](O)C[C@H]3C(=O)N[C@@H](C)c3ccc(-c4scnc4C)cc3)C(C)(C)C)nc3c(F)c(-c4c(O)cccc4F)c(Cl)cc23)CC1 (atropisomer, axis not shown) [compound 213, (2S,4R)-1-((S)-24-(((S)-4-(4-acryloylpiperazin-1-yl)-6-chloro-8-fluoro-7-(2-fluoro-6-hydroxyphenyl)quinazolin-2-yl)amino)-2-(tert-butyl)-21-methyl-4,22-dioxo-6,9,12,15,18-pentaoxa-3,21-diazatetracosanoyl)-4-hydroxy-N-((S)-1-(4-(4-methylthiazol-5-yl)phenyl)ethyl)pyrrolidine-2-carboxamide]
C (Percent Degradation: C ≤ 35) | C (Percent Degradation: C ≤ 35) | C (Percent Degradation: C ≤ 35) | ≤ 35 | – | – | – | Cc1ncsc1-c1ccc([C@H](C)NC(=O)[C@@H]2C[C@@H](O)CN2C(=O)[C@@H](NC(=O)COCCOCCN(C)C(=O)CCNc2nc(N3CCN(C(N)=O)CC3)c3cc(Cl)c(-c4c(O)cccc4F)c(F)c3n2)C(C)(C)C)cc1 (atropisomer, axis not shown) [compound 227, 4-((S)-6-chloro-8-fluoro-7-(2-fluoro-6-hydroxyphenyl)-2-(((S)-14-((2S,4R)-4-hydroxy-2-(((S)-1-(4-(4-methylthiazol-5-yl)phenyl)ethyl)carbamoyl)pyrrolidine-1-carbonyl)-4,15,15-trimethyl-3,12-dioxo-7,10-dioxa-4,13-diazahexadecyl)amino)quinazolin-4-yl)piperazine-1-carboxamide]
C (Percent Degradation: C ≤ 35) | C (Percent Degradation: C ≤ 35) | C (Percent Degradation: C ≤ 35) | ≤ 35 | – | – | – | Cc1ncsc1-c1ccc([C@H](C)NC(=O)[C@@H]2C[C@@H](O)CN2C(=O)[C@@H](NC(=O)COCCN(C)C(=O)CCNc2nc(N3CCN(C(=O)C(O)O)CC3)c3cc(Cl)c(-c4c(O)cccc4F)c(F)c3n2)C(C)(C)C)cc1 (atropisomer, axis not shown) [compound 234, (2S,4R)-1-((S)-2-(2-(2-(3-(((S)-6-chloro-4-(4-(2,2-dihydroxyacetyl)piperazin-1-yl)-8-fluoro-7-(2-fluoro-6-hydroxyphenyl)quinazolin-2-yl)amino)-N-methylpropanamido)ethoxy)acetamido)-3,3-dimethylbutanoyl)-4-hydroxy-N-((S)-1-(4-(4-methylthiazol-5-yl)phenyl)ethyl)pyrrolidine-2-carboxamide]
– | – | – | – | C (Percent Degradation: C ≤ 35) | C (Percent Degradation: C ≤ 35) | C (Percent Degradation: C ≤ 35) | Cc1ncsc1-c1ccc([C@H](C)NC(=O)[C@@H]2C[C@@H](O)CN2C(=O)[C@@H](NC(=O)COCCN(C)C(=O)CCNc2nc(N3CCN(C(=O)C(O)O)CC3)c3cc(Cl)c(-c4c(O)cccc4F)c(F)c3n2)C(C)(C)C)cc1 (atropisomer, axis not shown) [compound 235, (2S,4R)-1-((S)-2-(2-(2-(3-(((R)-6-chloro-4-(4-(2,2-dihydroxyacetyl)piperazin-1-yl)-8-fluoro-7-(2-fluoro-6-hydroxyphenyl)quinazolin-2-yl)amino)-N-methylpropanamido)ethoxy)acetamido)-3,3-dimethylbutanoyl)-4-hydroxy-N-((S)-1-(4-(4-methylthiazol-5-yl)phenyl)ethyl)pyrrolidine-2-carboxamide]
C (Percent Degradation: C ≤ 35) | – | – | – | – | – | – | Cc1ncsc1-c1ccc([C@H](C)NC(=O)[C@@H]2C[C@@H](O)CN2C(=O)[C@@H](NC(=O)COCCOCCN(C)C(=O)CCNc2nc(N3CCN(C(=O)C(O)O)CC3)c3cc(Cl)c(-c4c(O)cccc4F)c(F)c3n2)C(C)(C)C)cc1 (atropisomer, axis not shown) [compound 236, (2S,4R)-1-((S)-2-(tert-butyl)-15-(((S)-6-chloro-4-(4-(2,2-dihydroxyacetyl)piperazin-1-yl)-8-fluoro-7-(2-fluoro-6-hydroxyphenyl)quinazolin-2-yl)amino)-12-methyl-4,13-dioxo-6,9-dioxa-3,12-diazapentadecanoyl)-4-hydroxy-N-((S)-1-(4-(4-methylthiazol-5-yl)phenyl)ethyl)pyrrolidine-2-carboxamide]
